For six compounds, MIC results are on record in US4206215A, “Antimicrobial bis-[4-(substituted-amino)-1-pyridinium]alkanes” (Sterling Drug Inc., priority 1977, dated 1980).

In assay [1] the test system is S. Aureus Smith. Put plainly: In vitro antibacterial activity, MIC (modified Autotiter method). Type of assay: cell-based, Staphylococcus aureus. The note with it: Staphylococcus aureus, 20 h, read-out: MIC S. Aureus Smith. Here is the method: (§1) The antibacterial and antifungal activity of representative examples of the compounds of Formula I was determined using a modification of the Autotiter method described by Goss, et al. Applied Microbiology 16 (9) 1,414-1,416 (1968) in which a 1,000 mcg./ml. solution of the test compound is prepared. To the first cup of the Autotray is added 0.1 ml. of the test solution. Activation of the Autotiter initiates a sequence of operations by which 0.05 ml. of the test compound solution is withdrawn from the cup by a Microtiter transfer loop and diluted in 0.05 ml. of sterile water. Following this operation, 0.05 ml. of inoculated double-strength semisynthetic medium (glucose) is added automatically to each cup. The overall operation results in final drug concentrations ranging from 500 to 0.06 mcg./ml. in twofold decrements. […] The compounds were thus tested as solutions against a variety of gram positive and gram negative bacteria including Staphylococcus aureus, Proteus mirabilis, Escherichia coli, Klebsiella pneumoniae, Pseudomonas aeruginosa, Streptococcus pyogenes, and against such fungi as Aspergillus niger, Candida albicans and Trichophyton mentagrophytes.

The subject of assay [2] is E. coli Vogel. The assay is described as above. The settings on record: Escherichia coli, 20 h, read-out: MIC E. coli Vogel. Type of assay: cell-based, Escherichia coli. Here is the method:
as §1

Assay [3] deals with K. pneum. 39645. The description is as above. Type of assay: cell-based, Klebsiella pneumoniae. The note with it: Klebsiella pneumoniae, 20 h, read-out: MIC K. pneum. 39645. The method, then:
as §1

Assay [4] has as its system P. mirab. MGH-1. The assay is described as above. Type of assay: cell-based, Proteus mirabilis. The note with it: Proteus mirabilis, 20 h, read-out: MIC P. mirab. MGH-1. Here is the method: as §1
Assay [5] has as its system Ps. aerug. MGH-2. Described as above. In kind it is cell-based, Pseudomonas aeruginosa. The note with it: Pseudomonas aeruginosa, 20 h, read-out: MIC Ps. aerug. MGH-2. Here is the method:
as §1

Assay [6] concerns S. pyogen. C203. The description is as above. Type of assay: cell-based, Streptococcus pyogenes. The settings on record: Streptococcus pyogenes, 20 h, read-out: MIC S. pyogen. C203. The method, then: as §1
Assay [7] concerns A. niger 16404. Put plainly: In vitro antifungal activity, MIC (modified Autotiter method). In kind it is cell-based, Aspergillus niger. The settings on record: Aspergillus niger, 16404, 20 h, read-out: MIC A. niger 16404. Here is the method:
as §1

The test system of assay [8] is C. albicans 10231. The assay is described as above. In kind it is cell-based, Candida albicans. The note with it: Candida albicans, 10231, 20 h, read-out: MIC C. albicans 10231. Here is the method:
as §1

For assay [9], the system named is T. menta. 9129. The assay is described as above. The note with it: Trichophyton mentagrophytes, 20 h, read-out: MIC T. menta. 9129. Type of assay: cell-based, Trichophyton mentagrophytes. The method, then: as §1

Where two headings read alike, the source gives them in different places.

On to `Nc1cc[n+](CCCCCC[n+]2ccc(N)cc2)cc1` [IV, 1,6-bis-(4-amino-1-pyridinium)hexane dibromide, reference compound], for which the MIC in [1] (18-20 hours at 37° C.) is 125 µg/mL; in assay [2] (18-20 hours at 37° C.), 250 µg/mL; in [3] (18-20 hours at 37° C.), above 500 µg/mL; in assay [4] (18-20 hours at 37° C.), above 500 µg/mL; in assay [5] (18-20 hours at 37° C.) it was above 500 µg/mL; in assay [6] (18-20 hours at 37° C.), 62.5 µg/mL. For the same compound, the MIC was 500 µg/mL in assay [7] (18-20 hours at 37° C.), above 500 µg/mL in assay [8] (18-20 hours at 37° C.) and above 500 µg/mL in assay [9] (18-20 hours at 37° C.).
With `Cc1cc(N)cc[n+]1CCCCCCCCC[n+]1ccc(N)cc1C` [IX, 1,9-bis-(4-amino-2-methyl-1-pyridinium)nonane dibromide, reference compound], the MIC in [1] (18-20 hours at 37° C.) was 3.9 µg/mL; in assay [2] (18-20 hours at 37° C.), 31.3 µg/mL; in assay [3] (18-20 hours at 37° C.), 250 µg/mL; in assay [4] (18-20 hours at 37° C.), above 500 µg/mL; in assay [5] (18-20 hours at 37° C.), above 500 µg/mL; in [6] (18-20 hours at 37° C.), 3.9 µg/mL. Moreover, the MIC in assay [7] (18-20 hours at 37° C.) is 31.3 µg/mL; in assay [8] (18-20 hours at 37° C.), 31.3 µg/mL; in [9] (18-20 hours at 37° C.) it was 7.8 µg/mL.
Regarding `Nc1cc[n+](CCCCCCCCCCCC[n+]2ccc(N)cc2)cc1` [V, 1,12-bis-(4-amino-1-pyridinium)dodecane dibromide, reference compound], the MIC in assay [1] (18-20 hours at 37° C.) was 1.95 µg/mL; in [2] (18-20 hours at 37° C.), 62.5 µg/mL; in assay [3] (18-20 hours at 37° C.), above 62.5 µg/mL; in [4] (18-20 hours at 37° C.), above 125 µg/mL; in assay [5] (18-20 hours at 37° C.), above 62.5 µg/mL; in [6] (18-20 hours at 37° C.), 1 µg/mL. Moreover, the MIC in assay [7] (18-20 hours at 37° C.) was 31.3 µg/mL; in assay [8] (18-20 hours at 37° C.), 31.3 µg/mL; in assay [9] (18-20 hours at 37° C.) it was 3.9 µg/mL.
Consider `CC(CCCCCCCCC[n+]1ccc(N)cc1)[n+]1ccc(N)cc1` (stereo not drawn) [VI, 1,10-bis-(4-amino-1-pyridinium)-1-methyldecane dibromide, reference compound], for which the MIC in assay [1] (18-20 hours at 37° C.) was 15.6 µg/mL; in [2] (18-20 hours at 37° C.) it was 250 µg/mL; in assay [3] (18-20 hours at 37° C.), 500 µg/mL; in [4] (18-20 hours at 37° C.), above 500 µg/mL; in assay [5] (18-20 hours at 37° C.), above 500 µg/mL; in assay [6] (18-20 hours at 37° C.) it was 15.6 µg/mL. Also, the figures for the MIC in assay [7] (18-20 hours at 37° C.), in assay [8] (18-20 hours at 37° C.) and in [9] (18-20 hours at 37° C.) were 250 µg/mL, 31.3 µg/mL and 15.6 µg/mL, respectively.
Regarding `Nc1cc[n+](CCCCCCCCC[n+]2ccc(N)cc2)cc1` [VII, 1,9-bis-(4-amino-1-pyridinium)nonane dibromide, reference compound], the MIC was 31.3 µg/mL in assay [1] (18-20 hours at 37° C.); 250 µg/mL in assay [2] (18-20 hours at 37° C.); 500 µg/mL in [3] (18-20 hours at 37° C.); above 500 µg/mL in [4] (18-20 hours at 37° C.); above 500 µg/mL in assay [5] (18-20 hours at 37° C.); 7.8 µg/mL in assay [6] (18-20 hours at 37° C.). In addition, the results for the MIC in assay [7] (18-20 hours at 37° C.), in assay [8] (18-20 hours at 37° C.) and in assay [9] (18-20 hours at 37° C.) were 250 µg/mL, 31.3 µg/mL and 15.6 µg/mL, respectively.
For the compound `Cc1cc(N)cc[n+]1CCCCCCCC[n+]1ccc(N)cc1C` [VIII, 1,8-bis-(4-amino-2-methyl-1-pyridinium)octane dibromide, reference compound], the MIC is 31.3 µg/mL in assay [1]; above 250 µg/mL in assay [2]; 500 µg/mL in assay [3]; above 500 µg/mL in [4]; above 500 µg/mL in assay [5]; 7.8 µg/mL in [6]. For the same compound, the MIC in assay [7] is 125 µg/mL; in [8], 125 µg/mL; in [9], 15.6 µg/mL.
